ChEMBL document CHEMBL5096156, “A Review of Progress in Histone Deacetylase 6 Inhibitors Research: Structural Specificity and Functional Diversity” (J Med Chem, 2021)

Tests used:
Histone deacetylase 4 = Histone deacetylase 4 (Homo sapiens, UniProt P56524); assay: Inhibition of human recombinant HDAC4 incubated for 45 mins by microplate reader assay
Histone deacetylase 3 [1] = biological target: T1, Histone deacetylase 3 (Homo sapiens, UniProt O15379); assay: Inhibition of human recombinant HDAC3 incubated for 45 mins by microplate reader assay
T1 sequence (O15379 whole entry): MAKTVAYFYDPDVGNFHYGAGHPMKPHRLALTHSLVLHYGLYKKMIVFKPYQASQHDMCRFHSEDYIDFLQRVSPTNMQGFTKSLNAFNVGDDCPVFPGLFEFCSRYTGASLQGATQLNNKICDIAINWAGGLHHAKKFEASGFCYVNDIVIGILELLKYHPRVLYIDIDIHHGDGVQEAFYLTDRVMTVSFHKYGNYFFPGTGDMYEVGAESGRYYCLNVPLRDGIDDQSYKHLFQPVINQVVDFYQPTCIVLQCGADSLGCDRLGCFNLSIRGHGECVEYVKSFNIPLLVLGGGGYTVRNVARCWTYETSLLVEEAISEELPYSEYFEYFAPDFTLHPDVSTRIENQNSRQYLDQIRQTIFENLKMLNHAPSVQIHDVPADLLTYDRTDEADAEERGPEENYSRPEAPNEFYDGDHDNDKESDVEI

[2] = biological target: T2, Polyamine deacetylase HDAC10 (Homo sapiens, UniProt Q969S8); assay: Inhibition of full length human recombinant HDAC10 incubated for 30 to 60 mins by HDAC-Glo I/II assay
T2 sequence (Q969S8 whole entry): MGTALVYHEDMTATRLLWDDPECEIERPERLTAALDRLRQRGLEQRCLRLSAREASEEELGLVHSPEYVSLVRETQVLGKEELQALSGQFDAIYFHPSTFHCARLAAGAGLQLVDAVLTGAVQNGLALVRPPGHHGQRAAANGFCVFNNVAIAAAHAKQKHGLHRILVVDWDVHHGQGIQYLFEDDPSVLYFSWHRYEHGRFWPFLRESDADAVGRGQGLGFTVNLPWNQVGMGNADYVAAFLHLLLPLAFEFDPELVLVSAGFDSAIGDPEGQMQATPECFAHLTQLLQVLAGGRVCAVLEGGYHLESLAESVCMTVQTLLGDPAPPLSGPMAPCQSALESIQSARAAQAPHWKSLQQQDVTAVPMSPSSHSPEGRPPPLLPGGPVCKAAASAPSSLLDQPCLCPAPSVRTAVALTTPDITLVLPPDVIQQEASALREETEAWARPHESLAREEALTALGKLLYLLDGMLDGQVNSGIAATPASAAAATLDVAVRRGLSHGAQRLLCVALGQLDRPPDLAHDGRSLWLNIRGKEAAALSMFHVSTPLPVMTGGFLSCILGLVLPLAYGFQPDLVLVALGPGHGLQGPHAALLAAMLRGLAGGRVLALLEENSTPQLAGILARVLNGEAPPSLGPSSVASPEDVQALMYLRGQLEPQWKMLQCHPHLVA

Histone deacetylase 2 [3] = biological target: T3, Histone deacetylase 2 (Homo sapiens, UniProt Q92769); assay: Inhibition of full length human recombinant HDAC2 incubated for 30 to 60 mins by HDAC-Glo I/II assay
T3 sequence (Q92769 whole entry): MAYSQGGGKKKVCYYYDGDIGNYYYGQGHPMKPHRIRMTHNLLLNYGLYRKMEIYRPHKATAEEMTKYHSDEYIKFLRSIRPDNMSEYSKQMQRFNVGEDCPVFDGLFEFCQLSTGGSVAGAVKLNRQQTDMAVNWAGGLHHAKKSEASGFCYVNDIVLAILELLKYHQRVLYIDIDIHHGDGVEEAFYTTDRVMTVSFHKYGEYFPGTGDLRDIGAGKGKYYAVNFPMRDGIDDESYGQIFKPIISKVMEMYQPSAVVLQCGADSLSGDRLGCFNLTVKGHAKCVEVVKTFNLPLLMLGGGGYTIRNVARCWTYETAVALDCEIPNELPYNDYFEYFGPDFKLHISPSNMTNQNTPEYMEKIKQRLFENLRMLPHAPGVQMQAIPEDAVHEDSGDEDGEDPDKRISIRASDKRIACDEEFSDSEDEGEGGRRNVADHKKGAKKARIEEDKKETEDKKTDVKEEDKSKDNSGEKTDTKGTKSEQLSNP

Histone deacetylase 3 [4] = biological target: T1, Histone deacetylase 3; assay: Inhibition of full length human recombinant HDAC3 incubated for 30 to 60 mins by HDAC-Glo I/II assay
[5] = biological target: T4, Protein deacetylase HDAC6 (Homo sapiens, UniProt Q9UBN7); assay: Inhibition of full length human recombinant HDAC6 incubated for 30 to 60 mins by HDAC-Glo I/II assay
T4 sequence (Q9UBN7 whole entry): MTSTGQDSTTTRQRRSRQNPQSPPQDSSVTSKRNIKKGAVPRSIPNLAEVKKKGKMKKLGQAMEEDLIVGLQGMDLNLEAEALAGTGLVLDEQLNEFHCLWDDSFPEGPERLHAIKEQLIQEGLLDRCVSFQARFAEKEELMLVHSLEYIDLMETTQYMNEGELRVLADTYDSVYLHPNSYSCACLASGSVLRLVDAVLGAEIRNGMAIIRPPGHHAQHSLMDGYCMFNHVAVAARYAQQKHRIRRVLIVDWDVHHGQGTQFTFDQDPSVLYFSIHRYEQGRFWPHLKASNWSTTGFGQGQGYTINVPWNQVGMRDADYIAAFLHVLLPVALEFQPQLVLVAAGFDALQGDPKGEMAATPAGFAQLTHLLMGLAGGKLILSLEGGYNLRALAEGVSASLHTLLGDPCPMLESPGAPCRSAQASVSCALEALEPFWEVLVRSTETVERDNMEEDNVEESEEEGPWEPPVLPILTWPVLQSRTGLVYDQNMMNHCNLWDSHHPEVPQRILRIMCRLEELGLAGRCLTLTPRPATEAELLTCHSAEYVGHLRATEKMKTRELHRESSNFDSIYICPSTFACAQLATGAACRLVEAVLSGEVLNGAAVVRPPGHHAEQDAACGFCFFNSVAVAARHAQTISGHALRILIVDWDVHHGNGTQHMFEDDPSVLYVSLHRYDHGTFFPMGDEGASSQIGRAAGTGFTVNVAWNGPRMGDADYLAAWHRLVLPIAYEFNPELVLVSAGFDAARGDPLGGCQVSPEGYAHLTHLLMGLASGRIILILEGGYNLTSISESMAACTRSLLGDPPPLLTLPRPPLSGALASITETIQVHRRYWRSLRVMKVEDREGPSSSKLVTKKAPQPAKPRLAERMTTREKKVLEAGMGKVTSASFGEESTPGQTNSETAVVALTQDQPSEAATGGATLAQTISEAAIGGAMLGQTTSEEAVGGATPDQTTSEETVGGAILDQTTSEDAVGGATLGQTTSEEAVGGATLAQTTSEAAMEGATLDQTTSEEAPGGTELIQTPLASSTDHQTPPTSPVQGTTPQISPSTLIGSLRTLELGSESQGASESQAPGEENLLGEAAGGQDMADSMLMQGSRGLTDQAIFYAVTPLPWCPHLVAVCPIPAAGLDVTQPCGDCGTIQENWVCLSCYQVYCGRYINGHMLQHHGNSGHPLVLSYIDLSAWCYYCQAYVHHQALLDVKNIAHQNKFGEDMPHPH

Histone deacetylase 8 [6] = biological target: T5, Histone deacetylase 8 (Homo sapiens, UniProt Q9BY41); assay: Inhibition of full length human recombinant HDAC8 incubated for 30 to 60 mins by HDAC-Glo I/II assay
T5 sequence (Q9BY41 whole entry): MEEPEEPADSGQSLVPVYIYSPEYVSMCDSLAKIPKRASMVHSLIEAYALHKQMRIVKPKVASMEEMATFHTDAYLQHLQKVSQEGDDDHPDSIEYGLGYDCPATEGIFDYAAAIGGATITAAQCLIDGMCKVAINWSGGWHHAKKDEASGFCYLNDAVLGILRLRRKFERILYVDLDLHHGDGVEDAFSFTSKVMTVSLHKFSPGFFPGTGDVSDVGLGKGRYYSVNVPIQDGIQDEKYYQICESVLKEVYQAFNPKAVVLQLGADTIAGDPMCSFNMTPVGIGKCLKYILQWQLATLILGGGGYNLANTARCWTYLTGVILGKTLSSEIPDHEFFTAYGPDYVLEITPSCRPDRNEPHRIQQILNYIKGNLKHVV

Histone deacetylase 11 [7] = biological target: T6, Histone deacetylase 11 (Homo sapiens, UniProt Q96DB2); assay: Inhibition of full length human recombinant HDAC11 incubated for 30 to 60 mins by HDAC-Glo I/II assay
T6 sequence (Q96DB2 whole entry): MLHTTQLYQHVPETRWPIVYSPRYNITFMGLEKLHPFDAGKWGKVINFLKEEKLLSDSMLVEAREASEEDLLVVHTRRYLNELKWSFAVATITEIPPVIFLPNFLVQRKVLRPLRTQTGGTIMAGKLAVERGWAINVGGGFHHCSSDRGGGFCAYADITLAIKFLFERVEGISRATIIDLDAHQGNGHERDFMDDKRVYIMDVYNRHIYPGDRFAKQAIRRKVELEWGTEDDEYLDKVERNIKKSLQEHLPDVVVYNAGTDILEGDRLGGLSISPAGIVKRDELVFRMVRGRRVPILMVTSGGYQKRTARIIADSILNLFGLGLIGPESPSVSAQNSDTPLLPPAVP

Histone deacetylase 1 [8] = biological target: T7, Histone deacetylase 1 (Homo sapiens, UniProt Q13547); assay: Inhibition of full length human recombinant HDAC1 incubated for 30 to 60 mins by HDAC-Glo I/II assay
T7 sequence (Q13547 whole entry): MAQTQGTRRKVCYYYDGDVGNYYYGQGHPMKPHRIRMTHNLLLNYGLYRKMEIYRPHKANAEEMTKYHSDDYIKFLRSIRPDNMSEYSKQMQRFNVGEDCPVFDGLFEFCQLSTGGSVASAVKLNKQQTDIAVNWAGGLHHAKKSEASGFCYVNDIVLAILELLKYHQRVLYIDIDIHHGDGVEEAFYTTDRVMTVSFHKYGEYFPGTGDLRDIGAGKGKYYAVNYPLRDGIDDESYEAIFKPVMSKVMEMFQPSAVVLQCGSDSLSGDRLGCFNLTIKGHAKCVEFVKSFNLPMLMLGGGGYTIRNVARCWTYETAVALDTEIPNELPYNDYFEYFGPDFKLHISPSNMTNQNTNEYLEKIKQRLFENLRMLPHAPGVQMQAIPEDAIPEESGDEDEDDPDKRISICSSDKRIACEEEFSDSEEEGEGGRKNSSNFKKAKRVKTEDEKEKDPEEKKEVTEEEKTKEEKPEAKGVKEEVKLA

[9] = biological target: T8, Protein deacetylase HDAC6 (Homo sapiens) (UniProt Q9UBN7); assay: Inhibition of recombinant HDAC6 (unknown origin) using […] fluorogenic peptide as substrate at 5 uM incubated for 1 hr by microplate reader assay
T8 sequence (whole entry): T4 sequence (Q9UBN7 whole entry)

[10] = biological target: Heat shock protein HSP 90-alpha (Homo sapiens) (UniProt P07900); assay: Inhibition of recombinant HSP90 alpha (unknown origin) at 50 uM by fluorescence polarization competitive binding assay
[11] = biological target: T8, Protein deacetylase HDAC6 (Homo sapiens); assay: Inhibition of recombinant HDAC6 (unknown origin) using […] fluorogenic peptide as substrate at 50 uM incubated for 1 hr by microplate reader assay
[12] = biological target: T4, Protein deacetylase HDAC6; assay: Inhibition of human recombinant HDAC6 using BML-AK511 as substrate incubated for 60 mins by fluorimetric assay
[13] = biological target: T4, Protein deacetylase HDAC6; assay: Inhibition of human recombinant HDAC6 using ZMAL -Z-(Ac)Lys-AMC fluorogenic substrate incubated for 30 mins by microplate reader assay
Histone deacetylase 1 [14] = biological target: T7, Histone deacetylase 1; assay: Inhibition of human recombinant HDAC1 using ZMAL -Z-(Ac)Lys-AMC fluorogenic substrate incubated for 30 mins by microplate reader assay
Histone deacetylase 1 [15] = biological target: T7, Histone deacetylase 1; assay: Inhibition of HDAC1 (unknown origin)
[16] = biological target: T4, Protein deacetylase HDAC6; assay: Inhibition of HDAC6 (unknown origin)
Histone deacetylase 5 = Histone deacetylase 5 (Homo sapiens, UniProt Q9UQL6); assay: Inhibition of full length human recombinant HDAC5 using Ac-LGK(TFA)-AMC fluorogenic peptide as substrate incubated for 2 hrs by microplate reader assay
Chain of Histone deacetylase 5 (Q9UQL6 whole entry): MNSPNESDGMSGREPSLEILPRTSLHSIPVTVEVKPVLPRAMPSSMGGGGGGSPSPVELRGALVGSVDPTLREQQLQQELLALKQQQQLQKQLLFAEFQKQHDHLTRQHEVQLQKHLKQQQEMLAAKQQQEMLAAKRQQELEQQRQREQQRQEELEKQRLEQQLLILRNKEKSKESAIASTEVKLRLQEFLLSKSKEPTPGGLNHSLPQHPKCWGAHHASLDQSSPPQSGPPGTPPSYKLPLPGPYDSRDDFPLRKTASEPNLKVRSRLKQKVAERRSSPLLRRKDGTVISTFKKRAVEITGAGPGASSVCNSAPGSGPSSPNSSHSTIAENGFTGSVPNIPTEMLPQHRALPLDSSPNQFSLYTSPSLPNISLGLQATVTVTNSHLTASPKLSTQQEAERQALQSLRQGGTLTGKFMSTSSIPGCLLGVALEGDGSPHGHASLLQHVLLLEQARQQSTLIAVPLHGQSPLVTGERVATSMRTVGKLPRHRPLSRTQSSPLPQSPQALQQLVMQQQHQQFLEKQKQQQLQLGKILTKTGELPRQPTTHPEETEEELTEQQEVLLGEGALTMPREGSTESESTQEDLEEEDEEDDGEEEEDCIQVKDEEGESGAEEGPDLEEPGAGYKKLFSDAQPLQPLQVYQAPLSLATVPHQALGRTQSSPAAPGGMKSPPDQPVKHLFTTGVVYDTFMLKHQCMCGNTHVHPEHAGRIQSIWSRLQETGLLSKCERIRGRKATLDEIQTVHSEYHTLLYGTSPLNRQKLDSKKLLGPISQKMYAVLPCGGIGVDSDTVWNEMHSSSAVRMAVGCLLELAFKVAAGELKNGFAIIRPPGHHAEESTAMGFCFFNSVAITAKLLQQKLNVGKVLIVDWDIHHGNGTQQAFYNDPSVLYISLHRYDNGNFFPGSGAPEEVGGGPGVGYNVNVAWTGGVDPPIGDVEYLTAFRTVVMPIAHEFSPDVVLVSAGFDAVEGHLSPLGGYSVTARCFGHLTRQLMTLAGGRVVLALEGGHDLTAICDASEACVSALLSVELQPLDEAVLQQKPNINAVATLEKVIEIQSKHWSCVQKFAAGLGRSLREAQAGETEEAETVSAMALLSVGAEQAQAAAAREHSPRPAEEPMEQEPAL

Histone deacetylase 7 = biological target: T9, Histone deacetylase 7 (Homo sapiens, UniProt Q8WUI4); assay: Inhibition of full length human recombinant HDAC7 using Ac-LGK(TFA)-AMC fluorogenic peptide as substrate incubated for 2 hrs by microplate reader assay
T9 sequence (Q8WUI4 whole entry): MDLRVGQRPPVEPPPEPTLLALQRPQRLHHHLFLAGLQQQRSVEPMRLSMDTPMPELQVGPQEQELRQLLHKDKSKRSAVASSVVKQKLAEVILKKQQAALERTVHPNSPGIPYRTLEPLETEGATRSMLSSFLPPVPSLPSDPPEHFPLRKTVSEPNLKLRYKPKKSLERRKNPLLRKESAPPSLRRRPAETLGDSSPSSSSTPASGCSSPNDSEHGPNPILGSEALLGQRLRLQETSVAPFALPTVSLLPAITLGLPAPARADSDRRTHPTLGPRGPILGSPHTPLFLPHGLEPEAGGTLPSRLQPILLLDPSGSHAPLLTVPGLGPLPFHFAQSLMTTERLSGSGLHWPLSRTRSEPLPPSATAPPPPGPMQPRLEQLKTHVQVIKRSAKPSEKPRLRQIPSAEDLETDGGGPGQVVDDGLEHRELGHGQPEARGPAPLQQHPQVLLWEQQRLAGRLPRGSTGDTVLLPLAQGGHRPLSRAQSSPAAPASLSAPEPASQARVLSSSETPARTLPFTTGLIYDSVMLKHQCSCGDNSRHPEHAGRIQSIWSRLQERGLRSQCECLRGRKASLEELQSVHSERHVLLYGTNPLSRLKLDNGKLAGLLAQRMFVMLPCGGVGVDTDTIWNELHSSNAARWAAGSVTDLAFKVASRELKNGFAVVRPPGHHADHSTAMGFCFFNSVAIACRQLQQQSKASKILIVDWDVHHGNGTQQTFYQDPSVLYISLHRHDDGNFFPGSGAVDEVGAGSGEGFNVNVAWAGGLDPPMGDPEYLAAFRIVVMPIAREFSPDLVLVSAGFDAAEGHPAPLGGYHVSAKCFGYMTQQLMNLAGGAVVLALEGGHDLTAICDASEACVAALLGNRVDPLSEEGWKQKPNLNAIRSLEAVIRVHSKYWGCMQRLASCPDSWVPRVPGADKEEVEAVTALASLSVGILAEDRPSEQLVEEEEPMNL

Histone deacetylase 8 [17] = biological target: T5, Histone deacetylase 8; assay: Inhibition of full length human recombinant HDAC8 using RHKKAcKAc-AMC fluorogenic peptide as substrate incubated for 2 hrs by microplate reader assay
Histone deacetylase 3 [18] = biological target: T1, Histone deacetylase 3
Histone deacetylase 11 [19] = biological target: T6, Histone deacetylase 11; assay: Inhibition of full length human recombinant HDAC11 using RHKKAc-AMC fluorogenic peptide as substrate incubated for 2 hrs by microplate reader assay
[20] = biological target: T2, Polyamine deacetylase HDAC10; assay: Inhibition of full length human recombinant HDAC10 expressed in baculovirus infected Sf9 cells using RHKKAc fluorogenic peptide as substrate incubated for 2 hrs
Histone deacetylase 1 [21] = biological target: T7, Histone deacetylase 1; assay: Inhibition of full length human recombinant HDAC1 expressed in baculovirus infected Sf9 cells using RHKKAc fluorogenic peptide as substrate incubated for 2 hrs
Histone deacetylase 2 [22] = biological target: T3, Histone deacetylase 2; assay: Inhibition of full length human recombinant HDAC2 expressed in baculovirus infected Sf9 cells using RHKKAc fluorogenic peptide as substrate incubated for 2 hrs
Histone deacetylase 3 [23] = biological target: T1, Histone deacetylase 3; assay: Inhibition of full length human recombinant HDAC3 expressed in baculovirus infected Sf9 cells using RHKKAc fluorogenic peptide as substrate incubated for 2 hrs

Chain of Histone deacetylase 4 (P56524 whole entry): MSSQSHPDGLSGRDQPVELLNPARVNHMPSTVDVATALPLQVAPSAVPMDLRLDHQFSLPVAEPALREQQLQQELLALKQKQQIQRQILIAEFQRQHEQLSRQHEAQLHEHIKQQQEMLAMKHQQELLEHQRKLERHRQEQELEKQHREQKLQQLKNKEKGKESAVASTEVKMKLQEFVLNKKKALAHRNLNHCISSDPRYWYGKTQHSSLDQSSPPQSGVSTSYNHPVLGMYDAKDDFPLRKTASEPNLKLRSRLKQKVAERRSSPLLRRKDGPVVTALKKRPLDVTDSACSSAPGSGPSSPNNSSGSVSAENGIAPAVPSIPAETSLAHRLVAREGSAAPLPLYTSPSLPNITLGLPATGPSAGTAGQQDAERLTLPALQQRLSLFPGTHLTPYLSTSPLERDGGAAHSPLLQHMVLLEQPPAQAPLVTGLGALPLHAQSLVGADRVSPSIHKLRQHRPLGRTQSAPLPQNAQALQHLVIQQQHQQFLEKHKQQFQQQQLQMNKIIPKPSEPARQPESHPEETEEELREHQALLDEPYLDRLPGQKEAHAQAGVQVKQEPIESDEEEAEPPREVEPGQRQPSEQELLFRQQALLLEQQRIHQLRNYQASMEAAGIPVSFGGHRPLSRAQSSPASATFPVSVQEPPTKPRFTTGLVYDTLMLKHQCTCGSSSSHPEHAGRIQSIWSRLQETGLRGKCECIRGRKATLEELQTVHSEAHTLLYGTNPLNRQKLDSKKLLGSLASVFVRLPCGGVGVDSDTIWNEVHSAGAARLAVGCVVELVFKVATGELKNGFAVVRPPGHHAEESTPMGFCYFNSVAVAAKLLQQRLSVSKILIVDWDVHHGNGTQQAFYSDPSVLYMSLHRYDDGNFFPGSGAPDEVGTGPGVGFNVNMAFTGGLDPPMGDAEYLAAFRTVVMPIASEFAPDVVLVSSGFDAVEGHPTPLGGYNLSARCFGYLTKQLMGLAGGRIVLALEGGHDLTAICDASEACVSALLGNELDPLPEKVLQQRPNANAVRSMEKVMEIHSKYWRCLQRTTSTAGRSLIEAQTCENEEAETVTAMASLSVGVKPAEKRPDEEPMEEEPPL

O=C(NO)c1ccc(CC(=O)N(CCO)c2ccccc2)cc1
IC50 (Histone deacetylase 4): 1700 nM
IC50 (Histone deacetylase 3 [1]): > 10000 nM

COc1ccc2c3c(cccc13)C(=O)N(Cc1ccc(C(=O)NO)cc1)C2=O
IC50 [2]: 375 nM
IC50 (Histone deacetylase 2 [3]): 162 nM
IC50 (Histone deacetylase 3 [4]): 64 nM
IC50 [5]: 0.1 nM
IC50 (Histone deacetylase 8 [6]): > 30000 nM
IC50 (Histone deacetylase 11 [7]): > 30000 nM
IC50 (Histone deacetylase 1 [8]): 108 nM

Cc1nc(N)nc(COC(=O)c2cccc(-c3cc(C(F)(F)F)on3)c2)n1
inhibition [9]: 53%
inhibition [10]: 32%
inhibition [11]: 62%

O=S(=O)(N1CCN(C2COC2)CC1)N(Cc1ccc(-c2nnc(C(F)(F)F)o2)cn1)c1ccc(F)c(Cl)c1
IC50 [12]: 14 nM

CCCC1=C(Nc2ccc(C(=O)NO)cc2)C2N=CC=CC2=N1 (stereo not drawn)
IC50 [13]: 58 nM
IC50 (Histone deacetylase 1 [14]): 2200 nM

CCN(CC)Cc1ccc(Cn2c(=O)c(OCc3ccc(C(=O)NO)cc3)c(-c3ccccc3)c3ccccc32)cc1
IC50 (Histone deacetylase 1 [15]): 322 nM
IC50 [16]: 6.9 nM

O=C(NO)c1ccc(CN2CCCc3cc(Cl)ccc32)cc1
IC50 (Histone deacetylase 5): 4070 nM
IC50 (Histone deacetylase 7): 4550 nM
IC50 (Histone deacetylase 8 [17]): 3720 nM
IC50 (Histone deacetylase 3 [18]): 29500 nM
IC50 (Histone deacetylase 11 [19]): 5720 nM

CC(C)(C)OC(=O)Nc1cccc(-c2cc(C(=O)NCCc3cc(C(=O)NO)no3)no2)c1
IC50 [20]: > 50000 nM
IC50 (Histone deacetylase 1 [21]): > 50000 nM
IC50 (Histone deacetylase 2 [22]): > 50000 nM
IC50 (Histone deacetylase 3 [23]): > 50000 nM

CCN(CC)Cc1ccc(Cn2c(=O)c(OCc3ccc(C(=O)NO)cc3)c(-c3cccnc3)c3ccccc32)cc1
IC50 (Histone deacetylase 1 [15]): 319 nM
IC50 [16]: 11.5 nM
